According to article PMC4601051, “Discovery of Indoline-2-carboxamide Derivatives as a New Class of Brain-Penetrant Inhibitors of Trypanosoma brucei” (Journal of Medicinal Chemistry, 2015):
“And” between values parts separate entries of the source, which are not always exact repeats. Equal values may be shown once. Read-outs that look alike come from different tables or passages of the source.

Legend:
[1] = tested on: bloodstream form T. brucei brucei; experiment: T. b. brucei whole cell parasite (trypanosome growth) assay; assay type: cell-based, Trypanosoma brucei brucei; details: for EC50: Trypanosoma brucei, mean of two or more determinations, 69 h + 4 h resazurin, read-out: T. b. brucei EC50
Procedure: This was conducted as previously described.[27] Cell culture plates were stamped with 1 μL of an appropriate stock concentration of test compound, followed by addition of 200 μL of trypanosome culture (HMI9-T, 10% FCS) to each well at a density of 2000 cells per well (except column 12 receiving media only). […] Potency was carried out using 10-point dose–response curves.

[2] = Microsomal intrinsic clearance (Clint), mouse; assay type: in vitro ADME; details: mouse liver microsomes, 0.5 μM compound
Procedure: (§1) Each test compound (0.5 μM) was incubated with pooled female CDI mouse liver microsomes, pooled male Sprague–Dawley rat microsomes, or pooled mixed gender human liver microsomes (Tebu-Bio, UK; 0.5 mg/mL 50 mM potassium phosphate buffer, pH 7.4) and the reaction started with addition of excess NADPH (8 mg/mL, 50 mM potassium phosphate buffer, pH 7.4). Immediately, at time zero, then at 3, 6, 9, 15, and 30 min, an aliquot (50 μL) of the incubation mixture was removed and mixed with acetonitrile (100 μL) to stop the reaction. Internal standard was added to all samples, and the samples were centrifuged at 1825g for 10 min to sediment precipitated protein. The plates were then sealed prior to UPLC/MS/MS analysis using a Quattro Premier XE (Waters Corporation, USA).
(§2) XLfit (IDBS, UK) was used to calculate the exponential decay and consequently the rate constant (k) from the ratio of peak area of test compound to internal standard at each time point.

[3] = Plasma protein binding by equilibrium dialysis, mouse; assay type: in vitro ADME; details: read-out: plasma protein binding, Fu (fraction unbound)
Procedure: (§3) The software package StarDrop by Optibrium was used to calculate physicochemical parameters including log P, molecular weight, and polar surface area (PSA). The aqueous kinetic solubility of the compounds was measured using laser nephelometry as previously described.[40] The plasma protein binding of the compounds was determined by the equilibrium dialysis method.[12]

[4] = In vivo mouse pharmacokinetics; details: for Cmax / Tmax / half-life / AUC(0-t) at 8 h / AUC(0-t): female, mouse, in vivo, 10 mg/kg, NMRI mice; for AUC(0-t) at 8 h: read-out: AUC0–8; for AUC(0-t): read-out: AUC0–8 (converted)
Procedure: Each compound was dosed as a bolus solution intraperitoneally at 10 mg free base/kg (dose volume, 10 mL/kg; dose vehicles used, 10% DMSO; 40% PEG400; 50% Milli-Q water or 5% DMSO; 40% PEG400; 55% saline) to female HRN (1 only) or NMRI mice (n = 3) or dosed orally by gavage as a solution at 10 mg free base/kg (dose volume, 10 mL/kg; dose vehicle, 10% DMSO; 40% PEG400; 50% Milli-Q water) to female NMRI mice (n = 3). Female NMRI mice were chosen, as these represent the sex and strain used for the stage 1 and stage 2 HAT efficacy models. Blood samples were taken from each mouse at 5 (IP only), 15, and 30 min, 1, 2, 4, 6, and 8 h post dose, mixed with two volumes of distilled water, and stored frozen until UPLC/MS/MS analysis. Pharmacokinetic parameters were derived from noncompartmental analysis of the blood concentration time curve using PK solutions software v 2.0 (Summit Research Services, USA).

[5] = Mouse brain penetration (brain:blood ratio); details: in vivo, dosed intravenously at 0.5 or 1 mg/kg, levels measured after 5 min, female NMRI mice, read-out: B:B (brain to blood ratio)
Procedure: Each compound was dosed as a bolus solution intravenously at 0.5 or 1 mg free base/kg (dose volume, 5 mL/kg; dose vehicle, 10% DMSO; 40% PEG400; 50% Milli-Q water) to female NMRI mice (n = 6). At 5 and 30 min following intravenous bolus injection of test compound, mice (n = 3/time point) were placed under terminal anesthesia with isofluorane. A blood sample was taken by cardiac puncture and mixed with two volumes of distilled water, the mice decapitated, and the brain removed. Diluted blood and brains were stored frozen until preparation and analysis by UPLC/MS/MS. For each mouse at each time point, the concentration in brain (ng/g) was divided by the concentration in blood (ng/mL) to give a brain:blood ratio. The mean value obtained was quoted.

[6] = tested on: panel of receptors, including dopamine, serotonin, histamine, and muscarinic receptors; experiment: NIMH Psychoactive Drug Screening Program (PDSP) receptor panel; assay type: binding; details: significant inhibition is considered > 50%
Excerpt: However, the observed toxicity prevents further progression of the compounds. To try and identify a possible driver for toxicity, that may then offer an opportunity to design out this unwanted effect, the key compounds were screened against a panel of receptors at the NIMH Psychoactive Drug Screening Program (PDSP).[36],[37] No significant activity against a large panel of receptors, including dopamine, serotonin, histamine, and muscarinic receptors (see Supporting Information) was observed.
S2: Details of receptors screened at the NIMH Psychoactive Drug Screening Program […]
receptors screened. Significant inhibition is considered > 50%. In cases where negative inhibition (-) is seen, this represents a stimulation of binding. The receptors screened were 5- […]
HT7, Alpha1A, Alpha1B, Alpha1D, Alpha2A, Alpha2B, Alpha2C, Beta1, Beta2, Beta3, BZP rat Brain site, D1, D2, D3, D4, D5, DAT, DOR, GABBA, H1, H2, H3, KOR, M1, M2, M3, M4, M5, MOR, NET, PBR, SERT, Sigma1 and Sigma2

in vitro = details: human, MRC-5 fibroblasts
Procedure: Proliferation assays using bloodstream form T. brucei brucei and human MRC-5 fibroblasts were conducted using a modification of the cell viability assay as previously reported.[27],[39]
MRC-5 cells (2000 cells per well) were seeded in 200 μL of DMEM, 10% FCS, and allowed to adhere overnight. One microliter of test compound was added to each well on the day of assay initiation.
The final DMSO level was 0.5% in all cases.

[7] = Microsomal intrinsic clearance (Clint), rat; assay type: in vitro ADME; details: rat liver microsomes, 0.5 μM compound
Procedure: as §1, §2

[8] = Microsomal intrinsic clearance (Clint), human; assay type: in vitro ADME; details: human liver microsomes, 0.5 μM compound
Procedure: as §1, §2

[9] = Aqueous kinetic solubility by laser nephelometry; assay type: physicochemical; details: aqueous medium, Table 7
Procedure: as §3

[10] = Brain tissue binding by equilibrium dialysis; assay type: in vitro ADME; details: Sprague-Dawley, brain homogenate; rat (male SD rat); read-out: brain tissue binding (rat), Fu
Procedure: In brief, a 96-well equilibrium dialysis apparatus was used to determine the free fraction in the brain for the test compound (HT Dialysis LLC, Gales Ferry, CT). Membranes (12–14 kDa A cutoff) were conditioned in deionized water for 60 min, followed by conditioning in 80:20 deionized water:ethanol for 20 min and then rinsed in artificial cerebrospinal fluid (CSF) before use. Mouse brain was removed from the freezer and allowed to thaw on the day of experiment. […] Diluted brain homogenate was spiked with the test compound (10 ug/g), and 150 μL aliquots (n = 6 replicate determinations) loaded into the 96-well equilibrium dialysis plate. Dialysis vs artificial CSF (150 μL) was carried out for 5 h in a temperature controlled incubator at ca. 37 °C (Stuart scientific Ltd., UK) using an orbital microplate shaker at 125 rpm (Stuart scientific Ltd., UK). […] All samples were analyzed by means of UPLC/MS/MS on a Quattro Premier XE mass spectrometer (Waters Corporation, USA). The unbound fraction was determined as the ratio of the peak area in artificial CSF to that in brain, with correction for dilution factor according to eq 1.[42] […] 1 where D = dilution factor in brain homogenate and Fu,apparent is the measured free fraction of diluted brain homogenate.

Structure (SMILES)	EC50 [1] [nM]	mouse microsomal intrinsic clearance [2]	fraction unbound [3]	Cmax ([4]; IP)	Tmax ([4]; IP) [min]	half-life ([4]; IP) [min]	AUC(0-t) at 8 h ([4]; IP) [µM·h]	AUC(0-t) ([4]; IP) [ng·h/mL]	Cmax ([4]; PO)	Tmax ([4]; PO) [min]	half-life ([4]; PO) [min]	AUC(0-t) at 8 h ([4]; PO) [µM·h]	AUC(0-t) ([4]; PO) [ng·h/mL]	Kp at 5 min [5]	EC50 at 69 h (in vitro) [nM]	also measured
CNC(=O)C1Cc2ccccc2N1C(=O)COc1ccc(F)cc1 (stereo not shown) [Compound 35, 1-(2-(4-fluorophenoxy)acetyl)-N-methylindoline-2-carboxamide]	20	1.2 mL min^–1 g^–1 and 1.2/ND mL min^–1 g^–1	0.42	910 ng/mL and 2.8 µM	15	66	5.6	1830	180 ng/mL and 550 nM	15	42	0.8	250	1.5	> 50000	inhibition against receptors screened [6]: did not show significant inhibitor
CNC(=O)C1Cc2cc(F)ccc2N1C(=O)COc1ccc(F)cc1 (stereo not shown) [Compound 55, 5-fluoro-1-(2-(4-fluorophenoxy)acetyl)-N-methylindoline-2-carboxamide]	80	1.3 mL min^–1 g^–1	0.33	2900 ng/mL and 8.4 µM	60	72	34	11800	1500 ng/mL and 4.3 µM	30	120	10	3500	1.4	> 50000	Hill slope ([1]; T. brucei EC50 curve): 4.4; microsomal intrinsic clearance, rat [7]: 2.1 mL min^–1 g^–1; microsomal intrinsic clearance, human [8]: 0.5 mL min^–1 g^–1 and < 0.5 mL min^–1 g^–1; solubility [9]: > 100 µg/mL; fraction unbound at 5 h, 10 ug/g [10]: 0.29; higher AUC compared to 1 ([4]; IP, female NMRI mice): 1.5–6.5 fold
